What was measured:
Format in all cases: in vivo
[1] = system: Kochia (Kochia scoparia); assay: Test A preemergence; settings: for Plant response rating, Kochia: 125 g ai/ha
Source text: (§1) Seeds of plant species selected from barnyardgrass (Echinochloa crus-galli), Kochia (Kochia scoparia), ragweed (common ragweed, Ambrosia elatior), ryegrass, Italian (Italian ryegrass, Lolium multiflorum), crabgrass, large (Digitaria sanguinalis), giant foxtail (Setaria faberii), green foxtail (Setaria viridis), morningglory (Ipomoea spp.), pigweed (Amaranthus retroflexus), velvetleaf (Abutilon theophrasti), wheat (Triticum aestivum), and corn (Zea mays) were planted into a blend of loam soil and sand and treated preemergence with a directed soil spray using test chemicals formulated in anon-phytotoxic solvent mixture which included a surfactant.
(§2) At the same time, plants selected from these crop and weed species and also blackgrass (Alopecurus myosuroides), and Galium (catchweed bedstraw, Galium aparine) were planted in pots containing the same blend of loam soil and sand and treated with postemergence applications of test chemicals formulated in the same manner. Plants ranged in height from 2 to 10 cm and were in the one- to two-leaf stage for the postemergence treatment. Treated plants and untreated controls were maintained in a greenhouse for approximately 10 d, after which time all treated plants were compared to untreated controls and visually evaluated for injury. Plant response ratings, summarized in Table A, are based on a 0 to 100 scale where 0 is no effect and 100 is complete control. A dash (-) response means no test result.

[2] = system: barnyardgrass (Echinochloa crus-galli); assay: Test A preemergence; settings: for Plant response rating, Barnyardgrass: 125 g ai/ha
Source text: as §1, §2

[3] = system: giant foxtail (Setaria faberii); assay: Test A preemergence; settings: for Plant response rating, Foxtail, Giant: 125 g ai/ha
Source text: as §1, §2

[4] = system: pigweed (Amaranthus retroflexus); assay: Test A preemergence; settings: for Plant response rating, Pigweed: 125 g ai/ha
Source text: as §1, §2

[5] = system: ragweed (common ragweed, Ambrosia elatior); assay: Test A preemergence; settings: for Plant response rating, Ragweed: 125 g ai/ha
Source text: as §1, §2

[6] = system: ryegrass, Italian (Italian ryegrass, Lolium multiflorum); assay: Test A preemergence; settings: for Plant response rating, Ryegrass, Italian: 125 g ai/ha
Source text: as §1, §2

[7] = system: Galium (catchweed bedstraw, Galium aparine); assay: Test A postemergence; settings: for Galium plant response rating: 125 g ai/ha, visual injury rating on 0 to 100 scale (0 no effect, 100 complete control), approx. 10 d; for Plant response rating, Galium: 500 g ai/ha
Source text: as §1, §2

[8] = system: Kochia (Kochia scoparia); assay: Test A postemergence; settings: for Kochia plant response rating: 125 g ai/ha, visual injury rating on 0 to 100 scale (0 no effect, 100 complete control), approx. 10 d; for Plant response rating, Kochia: 500 g ai/ha
Source text: as §1, §2

[9] = system: barnyardgrass (Echinochloa crus-galli); assay: Test A postemergence
Source text: as §1, §2

[10] = system: blackgrass (Alopecurus myosuroides); assay: Test A postemergence
Source text: as §1, §2

[11] = system: corn (Zea mays); assay: Test A postemergence; settings: for Corn plant response rating: 125 g ai/ha, visual injury rating on 0 to 100 scale (0 no effect, 100 complete control), approx. 10 d; for Plant response rating, Corn: 500 g ai/ha
Source text: as §1, §2

[12] = system: giant foxtail (Setaria faberii); assay: Test A postemergence; settings: for Foxtail, Giant plant response rating: 125 g ai/ha, visual injury rating on 0 to 100 scale (0 no effect, 100 complete control), approx. 10 d; for Plant response rating, Foxtail, Giant: 500 g ai/ha
Source text: as §1, §2

[13] = system: pigweed (Amaranthus retroflexus); assay: Test A postemergence; settings: for Pigweed plant response rating: 125 g ai/ha, visual injury rating on 0 to 100 scale (0 no effect, 100 complete control), approx. 10 d; for Plant response rating, Pigweed: 500 g ai/ha
Source text: as §1, §2

[14] = system: ragweed (common ragweed, Ambrosia elatior); assay: Test A postemergence; settings: for Ragweed plant response rating: 125 g ai/ha, visual injury rating on 0 to 100 scale (0 no effect, 100 complete control), approx. 10 d; for Plant response rating, Ragweed: 500 g ai/ha
Source text: as §1, §2

[15] = system: ryegrass, Italian (Italian ryegrass, Lolium multiflorum); assay: Test A postemergence; settings: for Ryegrass, Italian plant response rating: 125 g ai/ha, visual injury rating on 0 to 100 scale (0 no effect, 100 complete control), approx. 10 d; for Plant response rating, Ryegrass, Italian: 500 g ai/ha
Source text: as §1, §2

[16] = system: wheat (Triticum aestivum); assay: Test A postemergence; settings: for Wheat plant response rating: 125 g ai/ha, visual injury rating on 0 to 100 scale (0 no effect, 100 complete control), approx. 10 d; for Plant response rating, Wheat: 500 g ai/ha
Source text: as §1, §2

[17] = system: barnyardgrass (Echinochloa crus-galli); assay: Test B flooded paddy test; settings: Flood, 0 to 100 scale where 0 is no effect and 100 is complete control, 13 to 15 d
Protocol: (§3) Plant species in the flooded paddy test selected from rice (Oryra sativa), sedge, umbrella (small-flower umbrella sedge, Cyperus difformis), ducksalad (Heteranthera limosa), and barnyardgrass (Echinochloa crus-galli) were grown to the 2-leaf stage for testing. At time of treatment, test pots were flooded to 3 cm above the soil surface, treated by application of test compounds directly to the paddy water, and then maintained at that water depth for the duration of the test. Treated plants and controls were maintained in a greenhouse for 13 to 15 d, after which time all species were compared to controls and visually evaluated. Plant response ratings, summarized in Table B, are based on a scale of 0 to 100 where 0 is no effect and 100 is complete control. A dash (-) response means no test result.

[18] = system: ducksalad (Heteranthera limosa); assay: Test B flooded paddy test; settings: Flood, 0 to 100 scale where 0 is no effect and 100 is complete control, 13 to 15 d
Protocol: as §3

[19] = system: rice (Oryra sativa); assay: Test B flooded paddy test; settings: Flood, 0 to 100 scale where 0 is no effect and 100 is complete control, 13 to 15 d
Protocol: as §3

[20] = system: sedge, umbrella (small-flower umbrella sedge, Cyperus difformis); assay: Test B flooded paddy test; settings: Flood, 0 to 100 scale where 0 is no effect and 100 is complete control, 13 to 15 d
Protocol: as §3

[21] = preemergence, 0 to 100 scale (0 no effect, 100 complete control)
[22] = Preemergence, 500 g ai/ha, 0 is no effect, 100 is complete control
[23] = postemergence, 0 to 100 scale, 0 no effect, 100 complete control
[24] = 500 g ai/ha, postemergence, 0 to 100 scale, 0 no effect, 100 complete control
[25] = Postemergence, 125 g ai/ha, visual injury, 0 to 100 scale (0 no effect, 100 complete control), approx. 10 d
[26] = Preemergence, visual injury after approximately 10 d, 0 to 100 scale where 0 is no effect and 100 is complete control
[27] = Preemergence, 500 g ai/ha, visual injury approx. 10 d
[28] = Postemergence, 0 to 100 scale where 0 is no effect and 100 is complete control
[29] = 125 g ai/ha, postemergence, visual injury rating on 0 to 100 scale (0 no effect, 100 complete control), approx. 10 d
[30] = Postemergence, 500 g ai/ha, 0 to 100 scale where 0 is no effect and 100 is complete control

## O=C1NCC(c2cccc(OCC(F)F)c2)C1C(=O)Nc1ccccc1F (racemic) [Compound 387]
[1]; [21]
  Plant response rating, Kochia: 0
[1]; [22]
  Kochia plant response rating (0 to 100 scale): 0
[2]; [21]
  Plant response rating, Barnyardgrass: 70
[2]; [22]
  Barnyardgrass plant response rating (0 to 100 scale): 80
[3]; [21]
  Plant response rating, Foxtail, Giant: 70
[3]; [22]
  Foxtail, Giant plant response rating (0 to 100 scale): 90
[4]; [21]
  Plant response rating, Pigweed: 0
[4]; [22]
  Pigweed plant response rating (0 to 100 scale): 0
[5]; [21]
  Plant response rating, Ragweed: 0
[5]; [22]
  Ragweed plant response rating (0 to 100 scale): 0
[6]; [21]
  Plant response rating, Ryegrass, Italian: 0
[6]; [22]
  Ryegrass, Italian plant response rating (0 to 100 scale): 0
[7]; postemergence
  Galium plant response rating: 0
[7]; [23]
  Plant response rating, Galium: 0
[8]; postemergence
  Kochia plant response rating: 0
[8]; [23]
  Plant response rating, Kochia: 0
[9]; [24]
  Plant response rating, Barnyardgrass: 70
[9]; [25]
  Plant response rating, Barnyardgrass: 70
[10]; [24]
  Plant response rating, Blackgrass: 50
[10]; [25]
  Plant response rating, Blackgrass: 0
[11]; postemergence
  Corn plant response rating: 0
[11]; [23]
  Plant response rating, Corn: 0
[12]; postemergence
  Foxtail, Giant plant response rating: 50
[12]; [23]
  Plant response rating, Foxtail, Giant: 70
[13]; postemergence
  Pigweed plant response rating: 0
[13]; [23]
  Plant response rating, Pigweed: 0
[14]; postemergence
  Ragweed plant response rating: 0
[14]; [23]
  Plant response rating, Ragweed: 0
[15]; postemergence
  Ryegrass, Italian plant response rating: 0
[15]; [23]
  Plant response rating, Ryegrass, Italian: 0
[16]; postemergence
  Wheat plant response rating: 0
[16]; [23]
  Plant response rating, Wheat: 0
[17]; 500 g ai/ha
  Plant response rating, Barnyardgrass: 50
[18]; 500 g ai/ha
  Plant response rating, Ducksalad: 75
[19]; 500 g ai/ha
  Plant response rating, Rice: 20
[20]; 500 g ai/ha
  Plant response rating, Sedge, Umbrella: 0

## Cc1ccc(C2CNC(=O)C2C(=O)Nc2ccccc2S(C)(=O)=O)c(F)c1 (racemic) [Compound 507]
[1]; [26]
  Plant response rating, Kochia: 0
[1]; [27]
  Kochia plant response rating (0 to 100 scale, 0 is no effect, 100 is complete control): 70
[2]; [26]
  Plant response rating, Barnyardgrass: 40
[2]; [27]
  Barnyardgrass plant response rating (0 to 100 scale, 0 is no effect, 100 is complete control): 80
[3]; [26]
  Plant response rating, Foxtail, Giant: 0
[3]; [27]
  Foxtail, Giant plant response rating (0 to 100 scale, 0 is no effect, 100 is complete control): 50
[4]; [26]
  Plant response rating, Pigweed: 0
[4]; [27]
  Pigweed plant response rating (0 to 100 scale, 0 is no effect, 100 is complete control): 20
[5]; [26]
  Plant response rating, Ragweed: 0
[5]; [27]
  Ragweed plant response rating (0 to 100 scale, 0 is no effect, 100 is complete control): 0
[6]; [26]
  Plant response rating, Ryegrass, Italian: 0
[6]; [27]
  Ryegrass, Italian plant response rating (0 to 100 scale, 0 is no effect, 100 is complete control): 0
[7]; postemergence
  Galium plant response rating: 0
[7]; [28]
  Plant response rating, Galium: 20
[8]; postemergence
  Kochia plant response rating: 30
[8]; [28]
  Plant response rating, Kochia: 70
[9]; [29]
  Barnyardgrass plant response rating: 20
[9]; [30]
  Plant response rating, Barnyardgrass: 60
[10]; [29]
  Blackgrass plant response rating: 0
[10]; [30]
  Plant response rating, Blackgrass: 0
[11]; postemergence
  Corn plant response rating: 0
[11]; [28]
  Plant response rating, Corn: 0
[12]; postemergence
  Foxtail, Giant plant response rating: 0
[12]; [28]
  Plant response rating, Foxtail, Giant: 20
[13]; postemergence
  Pigweed plant response rating: 0
[13]; [28]
  Plant response rating, Pigweed: 0
[14]; postemergence
  Ragweed plant response rating: 0
[14]; [28]
  Plant response rating, Ragweed: 20
[15]; postemergence
  Ryegrass, Italian plant response rating: 0
[15]; [28]
  Plant response rating, Ryegrass, Italian: 0
[16]; postemergence
  Wheat plant response rating: 0
[16]; [28]
  Plant response rating, Wheat: 0
[17]; 250 g ai/ha
  Plant response rating, Barnyardgrass: 0
[18]; 250 g ai/ha
  Plant response rating, Ducksalad: 75
[19]; 250 g ai/ha
  Plant response rating, Rice: 0
[20]; 250 g ai/ha
  Plant response rating, Sedge, Umbrella: 0

— patent publication US12077503B2, “Substituted cyclic amides and their use as herbicides” (FMC CORPORATION, priority 2015, dated 2024)
